Target: T1, Cathepsin C (Bos taurus, UniProt Q3ZCJ8)
T1 construct: Cathepsin C (Sigma C8511 from bovine spleen); purchased Sigma C8511; host or cells: bovine spleen (tissue-derived)
Assay: Cathepsin C assay: light output of furimazine mono- or bis-Gly-Phe pro-substrate with Nanoluc, with and without Cathepsin C
Assay type: biochemical, bovine
Details: for Signal to Background: Cathepsin C vs none; for Background RLU: without Cathepsin C, Nanoluc
Description: Cathepsin C assay. To the solution of 50 μl of furimazine mono- or bis-Gly-Phe compound (50 μM) in 1:1 NanoGlo and nanopure water containing DTT 5 mM and 50 µL of 1 ng/mL Nanoluc buffer in 1:1 NanoGlo and nanopure water containing 5 mM DTT was added, then 10 μL of Cathepsin C (Sigma C8511 from bovine spleen) at final concentration of 0.1 U/well was added. The light output was measured over time. The background of pro-substrate was measured under same condition without adding Cathepsin C.
The synthesized coelenterazine analogues (compounds of formula (I)) were evaluated for their background and signal/background ratio.

T1 sequence (Q3ZCJ8 231-394 limits assumed): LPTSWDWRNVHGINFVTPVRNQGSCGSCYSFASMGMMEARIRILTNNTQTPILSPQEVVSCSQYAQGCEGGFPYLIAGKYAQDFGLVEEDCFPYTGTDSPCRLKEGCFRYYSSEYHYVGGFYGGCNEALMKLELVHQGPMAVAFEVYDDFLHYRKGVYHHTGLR
T1 sequence (Q3ZCJ8 25-134 limits assumed): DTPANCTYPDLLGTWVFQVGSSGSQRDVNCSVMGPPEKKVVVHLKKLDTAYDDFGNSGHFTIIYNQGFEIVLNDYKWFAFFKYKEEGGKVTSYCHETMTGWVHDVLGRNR
T1 sequence (Q3ZCJ8 395-463 limits assumed): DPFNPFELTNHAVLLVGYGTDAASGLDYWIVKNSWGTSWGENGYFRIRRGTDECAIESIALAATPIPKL

Question: What does the source list for `NCC(=O)NC(Cc1ccccc1)C(=O)Nc1ccc(COc2c(Cc3ccco3)nc3c(Cc4ccccc4)nc(-c4cccc(NC(=O)C(Cc5ccccc5)NC(=O)CN)c4)cn23)cc1` (stereo not drawn) [WZ-0299, Bis-Gly-Phe-Aminobenzyl Furimazine]?
Answer: background (in words) (FIG. 3, Tables 5 and 6): down to instrument noise; Signal to Background (Time 5 min): 751; Background RLU (Time 5 min): 20 RLU; Signal to Background (Time 10 min): 1,464; Background RLU (Time 10 min): 21 RLU; Signal to Background (Time 20 min): 2,256; Background RLU (Time 20 min): 18 RLU; Signal to Background (Time 30 min): 3,036; Background RLU (Time 30 min): 14 RLU; Signal to Background (Time 40 min): 3,941; Background RLU (Time 40 min): 14 RLU; Signal to Background (Time 60 min): 8,514; Background RLU (Time 60 min): 15 RLU; Signal to Background (Time 90 min): 11,997; Background RLU (Time 90 min): 16 RLU; Signal to Background (Time 120 min): 23,011; Background RLU (Time 120 min): 12 RLU; Signal to Background (Time 180 min): 29,836; Background RLU (Time 180 min): 17 RLU; Signal to Background (Time 240 min): 46,864; Background RLU (Time 240 min): 15 RLU; Signal to Background (Time 938 min): 17,386; Background RLU (Time 938 min): 12 RLU; signal-to-background ratio (in words) (compared to mono-protected analogue WZ-0294): significantly higher
